pEC50: −log10 of the molar value. Converted amounts (≈) assume the structure as drawn. Where a name gives a salt, the structure may show the parent alone. Read-outs that look alike come from different tables or passages of the source.
Experiments:
[1] = target: E. coli PBP3 (Escherichia coli (strain K12), UniProt P0AD68); assay: E. coli PBP3 Bocillin-FL fluorescence polarization competition binding assay
Method in brief: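 Polarization at 490/520 nm was monitored for 60 minutes in pH 8.0 Hepes buffer containing 300 mM NaCl and 5% glycerol, with compound spanning 0–1000 μM.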

[2] = tested on: engineered strain of Escherichia coli harboring CTX-M15; assay: microbe, parasite or virus in culture; assay type: cell-based; details: for MIC: Escherichia coli, read-out: Microbiological Activity (MIC in mg/L), E. coli DH5α/pLBII-CTX-M15, engineered strain producing CTX-M15
Description: (§1) Briefly, cryo-preserved bacterial cultures of challenge strains are streaked for isolation on appropriate agar medium, in this case Mueller Hinton II agar. Following incubation to allow growth of the colonies, plates are sealed with parafilm and stored refrigerated for up to two weeks. For preparation of assay inoculum and to ensure low variability, at least 5 colonies are picked from the agar plates with an inoculating loop and aseptically transferred to a culture tube containing 3 mL of Mueller-Hinton Broth (supplemented with divalent cations to required levels based on Manufacturers' certification). The broth culture is grown for 3-5 hours at 37° C. with shaking at 200 rpm. Meanwhile, 2-fold serial dilutions of test compounds are conducted in a 96 well plate with a final volume of 75 μL per well at 2-fold the final desired concentration. After the dilution plates are set up the growing cultures are then diluted in a cuvette containing MH II broth and the optical density is measured at 600 nm. The Inoculum is diluted such that 75 μL of this culture in Mueller-Hinton Broth results in a starting bacterial concentration of 5×10^5 CFU/mL when added to the dilution plates. The plates are incubated for 16-20 hours at 37° C. The MIC values are read visually as the lowest concentration well with no bacterial growth.
To determine if test compounds were affected by CTX-M15, the most abundant extended spectrum […] in clinical settings worldwide, the inhibition of the growth of an engineered strain of Escherichia coli harboring CTX-M15 was tested. This strain was constructed by cloning the gene encoding CTX-M15 into the NdeI and BamHI restriction endonuclease sites of plasmid pLBII, placing the gene(s) under the control of the Lac promoter. The constructed expression plasmid for CTX-M15 was used to transform competent E. coli DH5α cells to make the engineered strain, including an empty pLBII vector control strain. The classic cell based broth microdilution MIC assay was employed as described above with the addition of control antibiotics, known to be degraded by β-lactamases (Ceftazidime, piperacillin and piperacillin+tazobactam).

[3] = tested on: E. coli AG100A; assay: microbe, parasite or virus in culture; assay type: cell-based; details: Escherichia coli, read-out: MIC E. coli AG100A
Description: (§2) To determine the ability of test compounds to potentiate the inhibition of the growth of bacterial strains, classic cell based broth microdilution minimum inhibitory concentration (MIC) assays were employed. MIC assays are performed according to CLSI methods except where otherwise noted (CLSI, 2011 and CLSI, 2009). The reference type strain E. coli ATCC 25922, the wild-type parent strain E. coli AG100, the hyper-permeable E. coli 901C and E. coli D22 and the E. coli AG100A strain lacking the acrAB efflux pump encoding genes were used to determine the ability of the PBP inhibitors to penetrate the outer membrane of gram-negative bacteria and inhibit bacterial growth. […] The P. aeruginosa PAO1, P. aeruginosa ATCC 27853 and A. baumannii ATCC 19606, along with the hyper-permeable P. aeruginosa ATCC 35151 and an engineered efflux pump-compromised strain of P. aeruginosa (ΔmexAB-oprM) were used to determine the ability of PBP inhibitors to penetrate the outer membrane of P. aeruginosa and A. baumannii and assess antibacterial activity against these important gram-negative organisms.
as §1

[4] = tested on: K. pneumoniae SI-117; assay: microbe, parasite or virus in culture; assay type: cell-based; details: Klebsiella pneumoniae, SI117, read-out: MIC K. pneumoniae SI-117
Description: as §2, §1

[5] = tested on: K. pneumoniae UMM; assay: microbe, parasite or virus in culture; assay type: cell-based; details: Klebsiella pneumoniae; K. pneumoniae UMM producing SHV-5 and KPC-2; read-out: MIC K. pneumoniae UMM
Description: as §2, §1

[6] = tested on: E. coli 901C; assay: microbe, parasite or virus in culture; assay type: cell-based; details: Escherichia coli; hyper-permeable E. coli 901C, broth microdilution; read-out: MIC E. coli 901C
Description: as §2, §1

[7] = tested on: E. coli D22; assay: microbe, parasite or virus in culture; assay type: cell-based; details: Escherichia coli; hyper-permeable E. coli D22, broth microdilution; read-out: MIC E. coli D22
Description: as §2, §1

[8] = tested on: E. coli AG100; assay: Broth microdilution MIC, E. coli AG100 (wild-type parent); assay type: cell-based; details: Escherichia coli; wild-type parent E. coli AG100, broth microdilution; read-out: MIC E. coli AG100
Description: To determine the ability of test compounds to potentiate the inhibition of the growth of bacterial strains, classic cell based broth microdilution minimum inhibitory concentration (MIC) assays were employed.
as §1

[9] = tested on: K. pneumoniae 848844; assay: microbe, parasite or virus in culture; assay type: cell-based, Klebsiella pneumoniae; details: Klebsiella pneumoniae; K. pneumoniae 848844 producing SHV-11 and KPC-2; read-out: MIC K. pneumoniae 848844
Description: as §2, §1

[10] = tested on: E. coli ATCC 25922; assay: Broth microdilution MIC, E. coli ATCC 25922; assay type: cell-based; details: Escherichia coli, ATCC25922; E. coli ATCC 25922, broth microdilution; read-out: MIC E. coli 25922
Description: as §2, §1

[11] = fluorescence polarization competition binding with Bocillin-FL, read-out: E. coli K12 PBP3 Potency

Chain of E. coli PBP3 (P0AD68 whole entry): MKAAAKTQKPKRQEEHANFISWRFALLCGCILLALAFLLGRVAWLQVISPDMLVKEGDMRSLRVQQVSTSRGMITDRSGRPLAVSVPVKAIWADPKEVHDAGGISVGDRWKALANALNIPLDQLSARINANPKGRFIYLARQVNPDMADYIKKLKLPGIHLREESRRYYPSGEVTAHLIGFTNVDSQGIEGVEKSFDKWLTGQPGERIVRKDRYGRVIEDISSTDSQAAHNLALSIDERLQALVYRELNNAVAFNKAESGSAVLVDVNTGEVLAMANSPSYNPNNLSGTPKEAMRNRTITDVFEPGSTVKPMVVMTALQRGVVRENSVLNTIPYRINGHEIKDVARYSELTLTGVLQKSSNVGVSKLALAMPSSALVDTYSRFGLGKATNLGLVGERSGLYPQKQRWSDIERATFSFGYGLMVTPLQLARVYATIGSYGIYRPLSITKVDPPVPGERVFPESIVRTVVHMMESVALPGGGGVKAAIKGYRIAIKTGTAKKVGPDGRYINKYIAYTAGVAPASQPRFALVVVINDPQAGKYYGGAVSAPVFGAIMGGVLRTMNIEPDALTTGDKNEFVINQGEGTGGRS

CCN1CCN(C(=O)NC(C(=O)N[C@H]2Cc3cccc(C(=O)O)c3OB2O)c2c(C)n[nH]c2C)C(=O)C1=O (stereo partly drawn) [Example 54, (3R)-3-(2-(3,5-dimethyl-1H-pyrazol-4-yl)-2-(4-ethyl-2,3-dioxopiperazine-1-carboxamido)acetamido)-2-hydroxy-3,4-dihydro-2H-benzo[e][1,2]oxaborinine-8-carboxylic acid, trifluoroacetic acid salt]
pEC50 [1]: 3.30 to 4.52 | MIC [2]: 128 to 256 mg/L

CCN1CCN(C(=O)NC(C(=O)N[C@H]2Cc3cccc(C(=O)O)c3OB2O)C2CCNC2)C(=O)C1=O (stereo partly drawn) [Example 55, (3R)-3-(2-(4-ethyl-2,3-dioxopiperazine-1-carboxamido)-2-(pyrrolidin-3-yl)acetamido)-2-hydroxy-3,4-dihydro-2H-benzo[e][1,2]oxaborinine-8-carboxylic acid, trifluoroacetic acid salt]
pEC50 [1, 11]: < 3.30 | MIC [2]: 128 to 256 mg/L

CCN1CCN(C(=O)N[C@H](CNS(=O)(=O)C(F)(F)F)C(=O)N[C@H]2Cc3cccc(C(=O)O)c3OB2O)C(=O)C1=O [Example 75, (R)-3-((R)-2-(4-ethyl-2,3-dioxopiperazine-1-carboxamido)-3-((trifluoromethyl)sulfonamido)propanamido)-2-hydroxy-3,4-dihydro-2H-benzo[e][1,2]oxaborinine-8-carboxylic acid]
pEC50 [1, 11]: < 3.30 | MIC [2]: 128 to 256 mg/L (≈ 216 to 431 µM)

CCN1CCN(C(=O)NC(C(=O)N[C@H]2Cc3cccc(C(=O)O)c3OB2O)C2CCN(CC(N)=O)C2)C(=O)C1=O (stereo partly drawn) [Example 57, (3R)-3-(2-(1-(2-amino-2-oxoethyl)pyrrolidin-3-yl)-2-(4-ethyl-2,3-dioxopiperazine-1-carboxamido)acetamido)-2-hydroxy-3,4-dihydro-2H-benzo[e][1,2]oxaborinine-8-carboxylic acid, trifluoroacetic acid salt]
pEC50 [1, 11]: < 3.30 | MIC [2]: 128 to 256 mg/L

CCN1CCN(C(=O)NC(C(=O)N[C@H]2Cc3cccc(C(=O)O)c3OB2O)C(CO)CNS(N)(=O)=O)C(=O)C1=O (stereo partly drawn) [Example 79, (3R)-3-(2-(4-ethyl-2,3-dioxopiperazine-1-carboxamido)-4-hydroxy-3-((sulfamoylamino)methyl)butanamido)-2-hydroxy-3,4-dihydro-2H-benzo[e][1,2]oxaborinine-8-carboxylic acid]
MIC [2]: 32 to 64 mg/L (≈ 54.8 to 110 µM)

CCN1CCN(C(=O)N[C@@H](C(=O)N[C@H]2Cc3cc(O)c(O)c(C(=O)O)c3OB2O)[C@@H](C)O)C(=O)C1=O [Example 95, (R)-3-((2R,3R)-2-(4-ethyl-2,3-dioxopiperazine-1-carboxamido)-3-hydroxybutanamido)-2,6,7-trihydroxy-3,4-dihydro-2H-benzo[e][1,2]oxaborinine-8-carboxylic acid]
pEC50 [1, 11]: < 3.30 | MIC [2]: 128 to 256 mg/L (≈ 252 to 504 µM)

O=C(O)c1cccc2c1OB(O)[C@@H](NC(=O)C(NC(=O)c1c[nH]c3cccnc3c1=O)c1ccc(O)c(O)c1Cl)C2 (stereo partly drawn) [Example 59, (3R)-3-(2-(2-chloro-3,4-dihydroxyphenyl)-2-(4-oxo-1,4-dihydro-1,5-naphthyridine-3-carboxamido)acetamido)-2-hydroxy-3,4-dihydro-2H-benzo[e][1,2]oxaborinine-8-carboxylic acid]
MIC [2]: 128 to 256 mg/L (≈ 221 to 442 µM)

CCN1CCN(C(=O)N[C@@H](C(=O)N[C@H]2Cc3cccc(C(=O)O)c3OB2O)[C@@H](C)OCC(N)=O)C(=O)C1=O [Example 66, (R)-3-((2R,3R)-3-(2-amino-2-oxoethoxy)-2-(4-ethyl-2,3-dioxopiperazine-1-carboxamido)butanamido)-2-hydroxy-3,4-dihydro-2H-benzo[e][1,2]oxaborinine-8-carboxylic acid]
pEC50 [1]: 3.30 to 4.52 | MIC [2]: 32 to 64 mg/L (≈ 60 to 120 µM)

CCN1CCN(C(=O)NC(C(=O)N[C@H]2Cc3cccc(C(=O)O)c3OB2O)C(CCl)CNS(N)(=O)=O)C(=O)C1=O (stereo partly drawn) [Example 80, (3R)-3-(4-chloro-2-(4-ethyl-2,3-dioxopiperazine-1-carboxamido)-3-((sulfamoylamino)methyl)butanamido)-2-hydroxy-3,4-dihydro-2H-benzo[e][1,2]oxaborinine-8-carboxylic acid]
MIC [2]: 128 to 256 mg/L (≈ 212 to 425 µM)

CC(C)(O/N=C(\C(=O)N[C@@H]1C(=O)N2C(C(=O)[O-])=C(C[n+]3ccccc3)CS[C@H]12)c1csc(N)n1)C(=O)O [ceftazidime, reference compound]
MIC in CTX-M15 producer compared with parent strain with empty pLBII plasmid ([2]; engineered E. coli DH5α with CTX-M15 vs empty vector control): weaker MICs in the CTX-M15 producer | Microbiological Activity (MIC in mg/L), E. coli DH5α/pLBII-CTX-M15 ([2]; engineered strain producing CTX-M15): D (D represents an MIC from 8 to 16 μg/mL)

CCN1CCN(C(=O)N[C@@H](C(=O)N[C@H]2Cc3cccc(C(=O)O)c3OB2O)C2(CO)CC2)C(=O)C1=O [Example 62, (R)-3-((R)-2-(4-ethyl-2,3-dioxopiperazine-1-carboxamido)-2-(1-(hydroxymethyl)cyclopropyl)acetamido)-2-hydroxy-3,4-dihydro-2H-benzo[e][1,2]oxaborinine-8-carboxylic acid]
MIC [2]: 32 to 64 mg/L (≈ 63.7 to 127 µM)

CCN1CCN(C(=O)NC(C(=O)N[C@H]2Cc3cccc(C(=O)O)c3OB2O)c2ccc(N3CCOCC3)cc2)C(=O)C1=O (stereo partly drawn) [Example 61, (3R)-3-(2-(4-ethyl-2,3-dioxopiperazine-1-carboxamido)-2-(4-morpholinophenyl)acetamido)-2-hydroxy-3,4-dihydro-2H-benzo[e][1,2]oxaborinine-8-carboxylic acid]
MIC [2]: 128 to 256 mg/L (≈ 216 to 431 µM)

CCN1CCN(C(=O)NC(C(=O)N[C@H]2Cc3cccc(C(=O)O)c3OB2O)c2ncc(O)cc2C)C(=O)C1=O (stereo partly drawn) [Example 178, (3R)-3-(2-(4-ethyl-2,3-dioxopiperazine-1-carboxamido)-2-(5-hydroxy-3-methylpyridin-2-yl)acetamido)-2-hydroxy-3,4-dihydro-2H-benzo[e][1,2]oxaborinine-8-carboxylic acid]
MIC [3]: 32 to 64 mg/L | MIC [4]: > 128 mg/L | MIC [5]: > 128 mg/L | MIC [6]: 8 to 16 mg/L | MIC [7]: 32 to 64 mg/L | MIC [8]: > 128 mg/L | MIC [9]: > 128 mg/L | pEC50 [1]: 3.30 to 4.52 | MIC [10]: > 128 mg/L

CCN1CCN(C(=O)N[C@H](C(=O)N[C@H]2Cc3cccc(C(=O)O)c3OB2O)c2ccc(O)c(F)c2)C(=O)C1=O [Example 155, (R)-3-((S)-2-(4-ethyl-2,3-dioxopiperazine-1-carboxamido)-2-(3-fluoro-4-hydroxyphenyl)acetamido)-2-hydroxy-3,4-dihydro-2H-benzo[e][1,2]oxaborinine-8-carboxylic acid]
MIC [3]: 8 to 16 mg/L | MIC [4]: > 128 mg/L | MIC [5]: > 128 mg/L | MIC [6]: 0.5 to 1 mg/L | MIC [7]: 8 to 16 mg/L | MIC [8]: > 128 mg/L | MIC [9]: > 128 mg/L | pEC50 [1]: 3.30 to 4.52 | MIC [10]: > 128 mg/L

Source: patent publication US12173018B2, “Penicillin-binding protein inhibitors” (priority 2018, dated 2024)
